# Reference: patent US20230129651A1, “HAIRPIN STRUCTURE NUCLEIC ACID MOLECULES CAPABLE OF MODULATING TARGET GENE EXPRESSION AND USES THEREOF” (KOREA ADVANCED INSTITUTE OF SCIENCE AND TECHNOLOGY, priority 2021, published 2023)
# In the oligonucleotide strings, read from the 5' end, every base follows the letter of its sugar. An asterisk marks phosphorothioate; unmarked linkages are phosphodiester. Other units and linkages are bracketed, terminal groups are in braces. A string of capitals states the bases alone. d = 2'-deoxy (DNA)
# Assays:
# cells = test: Cytotoxicity assay of chemically modified miRNA triggers (CCK-8); type: cell-based; conditions: after transfection
# Protocol: (§1) The miRNA triggers were assayed for cytotoxicity and apoptosis induction, using the CCK-8 (Cell Counting Kit-8) (Dojindo, Kumamoto, Japan) according to the manufacturer's instruction. Cells were incubated in 96-well plates (5×10^3 cells/well) at 37° C. for 24 hours under a 5% CO2 atmosphere, followed by transfection. Three days after transfection, the medium was removed. A 10-fold dilution of CCK-8 solution in DMEM was added to the cells which were then incubated at 37° C. for 2 hours. After incubation, absorbance was read at 450 nm on Tecan Infinite M200 pro microplate reader (Mnnedorf, Switzerland).
# In addition, FPS HP and 2′-OMe HP, which were the most resistant to degradation in biological samples, were analyzed for cytotoxicity. In this regard, the HP in which the entire nucleotides of miRNA trigger (LP) were modified with PS (expressed as PS in Table 6 and FIG. 6), the linear probe in which the entire nucleotides of miRNA trigger (LP) were modified with 2′-O-Me (expressed as 2′O-me in Table 6 and FIG. 6), the control DNA LP (expressed as DNA in Table 6 and FIG. 6), or siRNA was transfected into cells which were then measured for cell viability using the method of Reference Example 9. The result is depicted in FIG. 6. […]
# miR-141 and Mcl1 mRNA = test: PAGE assay of hairpin miRNA trigger binding to miRNA and target mRNA; conditions: 100 nM each, 37° C., 1 hour
# Protocol: To a buffer (1×PBS+137 mM NaCl, 10 mM PO4, 2.7 mM KCl, 5 mM MgCl2; pH 7.4) containing the hairpin miRNA trigger (HP) verified through computer modeling, a miRNA and/or a target mRNA were each added at a concentration of 100 nM, followed by incubation at 37° C. for 1 hour. Each sample was loaded to a PAGE gel and electrophoresed.
# Hela-141 cells = test: Cell viability / apoptosis of Hela-141 cells after transfection; type: cell-based
# Protocol: as §1
# (§2) The linear miRNA triggers or siRNAs (siLuc and siMcl-1) prepared above were transfected into Hela, Hela-141, and Hela-200c cells which were then measured for cell viability. The results are depicted in FIG. 15.
# (§3) The hairpin miRNA triggers prepared above were transfected into Hela and Hela-141 cells which were then assayed for apoptosis. As a control, the siRNA (siMcl-1; Table 14) which can repress the expression of mcl-1 was transfected to Hela and Hela-141 cells and measured for apoptotic activity.
# Hela cells = test: Cell viability / apoptosis of Hela cells after transfection; type: cell-based
# Protocol: as §1, §2, §3
# Hela-200c cells = test: Cell viability / apoptosis of Hela-200c cells after transfection; type: cell-based
# Protocol: as §1, §2
# [1] = system: breast cancer cell line MDA-MB-231; test: Cell viability of MDA-MB-231 after transfection; type: cell-based; conditions: Example 8-2, combination
# Protocol: as §1
# The seven linear miRNA triggers prepared above and the positive control siRNA(siBcl-xL) capable of binding to bcL-xL were transfected into the breast cancer cell line MDA-MB-231 in which miR-222 is overexpressed. Cell viability was measured and is depicted in FIG. 32a.
# Linear miRNA triggers that could bind to miR-222 and target bcl-xL and mcl-1, respectively, were prepared and transfected alone or in combination into the breast cancer cell line MDA-MB-231. Cell viability was measured and the measurements are depicted in FIG. 34. siRNAs against Mcl-1 and Bcl-xL were used as controls. Sequences are listed in Table 23 for the linear miRNA trigger prepared above, in Tables 22 and 9 for the controls Luc-Luc-Luc and luc-222-222, respectively, and in Table 13 for the siRNAs. Every nucleotide of the triggers and the controls was chemically modified with 2′-OMe.
# Linear miRNA triggers that could bind to miR-141 or let7f and target Bcl-xL or Mcl-1 were prepared and transfected alone or in combination into the breast cancer cell line MDA-MB-231 which was then measured for cell viability. […]
# The hairpin miRNA triggers prepared above were transfected into MDA-MB-231 and MDA-MB-453 cells which were then measured for cell viability. […]
# Hairpin miRNA triggers which could bind to miR-222 or let-7f and target mcl-1 or bcl-xL were prepared and transfected into the breast cancer cell line MDA-MB-231 which was then measured for cell viability. […]
# GFP mRNA = test: GFP fluorescence intensity in GFP-expressing Hela-141 cells; type: cell-based; conditions: trigger 30 to 60 nM, siGFP compared to siLuc
# Text: A GFP fluorescent protein-expressing plasmid (used in Chen L L, DeCerbo J N, Carmichael G G. 2008. Alu element-mediated gene silencing. EMBO J 27: 1694-1705) was transfected into Hela-141 cells to prepare GFP-expressing Hela-141 cells. As stated in Reference Example 1, a linear miRNA trigger (LP; GFP_141_141), which can target GFP mRNA (=complementarily bind to GFP mRNA to regulate the expression of GFP) and complementarily bind to miR-141, and siRNAs which target GFP and Luc (Luciferase), respectively, were synthesized in Bioneer Inc. Sequences of the LP and siRNAs and types and positions of chemical modifications in each sequence are listed in Table 8, below.
# Above all, siLuc and siGFP were transfected into the GFP-expressing Hela-141 cells which were then measured for fluorescence intensity on an ELISA reader. […] In addition, the linear miRNA trigger (GFP(1)_141_141) was transfected into the GFP-expressing Hela-141 cells which were then measured for fluorescence intensity. The result is depicted in FIG. 8. For the transfection, the GFP plasmid and GFP_141_141 were used at a concentration of 0.5 to 1 μg/ml and 30 to 60 nM, respectively.
molecule,measurement,setting,value
"2′-O-Me: linear probe with entire nucleotides modified with 2′-O-Me, Table 6; SEQ ID NO 38 (UCGAAGUACUCAGCGUAAGUUCGAAGUACUCAGCGUAAGUUCGAAGUACUCAGCGUAAGU; all 2'-O-methyl, backbone not given here)",cell viability versus non-transfected negative control (in words),cells,not significantly different in viability from the negative control
"HP-Mcl1-141: unmodified hairpin miRNA trigger binding miR-141 and Mcl-1 mRNA; SEQ ID NO 18 (CAAGAGGATTATCCATCTTTACCTCACAGTGTTAATAATCCTCTTG; listed as DNA, further chemistry not given here)",binding to target mRNA in the absence of the miRNA,miR-141 and Mcl1 mRNA; lane 3,does not bind to the target mRNA
same,binding to miRNA and/or target mRNA in the presence of the miRNA,miR-141 and Mcl1 mRNA; lanes 2 and 4,bind to the miRNA and/or the target mRNA
"HP_Mcl-1(1)_141: hairpin miRNA trigger binding miR-141 and targeting mcl-1; SEQ ID NO 67 (GCUACGUAGUUCGGCCAUCUUUACCAGACAGUGUUACCGAACUACGUAGC; all 2'-O-methyl, backbone not given here; hairpin)",apoptosis induced,Hela-141 cells,about 40%
same,apoptosis / cell viability (in words),Hela cells,did not lead Hela cells to death at all
"HP_Mcl-1(3)_141: hairpin miRNA trigger binding miR-141 and targeting mcl-1; SEQ ID NO 68 (CGAAGGAAGUAUCGCCAUCUUUACCAGACAGUGUUACGAUACUUCCUUCG; all 2'-O-methyl, backbone not given here; hairpin)",apoptosis induced,Hela-141 cells,about 40%
same,apoptosis / cell viability (in words),Hela cells,did not lead Hela cells to death at all
"Mcl-1_200c_200c: linear miRNA trigger binding miR-200c and targeting Mcl-1 gene; SEQ ID NO 66 (111 in Table 24) (UCCAUCAUUACCGCGCAGUAUUAUCCAUCAUUACCGCGCAGUAUUACCGAACUACGUAGC; all 2'-O-methyl, backbone not given here)",apoptosis / cell viability (in words),Hela-141 cells,no significant influence on cell viability
same,apoptosis induced,Hela-200c cells,about 40%
"Mel-1_222_222: linear miRNA trigger binding miR-222 and targeting mcl-1; SEQ ID NO 109 (ACCCAGUAGCCAGAUGUAGCUACCCAGUAGCCAGAUGUAGCUCCGAACUACGUAGC; all 2'-O-methyl, backbone not given here)",apoptotic effect on additional introduction to the bcl-xL-targeting trigger,[1],did not further increase the apoptotic effect
"PS: miRNA trigger of random sequence with entire nucleotides PS-modified, Table 6; SEQ ID NO 37 (dT*dC*dG*dA*dA*dG*dT*dA*dC*dT*dC*dA*dG*dC*dG*dT*dA*dA*dG*dT*dT*dC*dG*dA*dA*dG*dT*dA*dC*dT*dC*dA*dG*dC*dG*dT*dA*dA*dG*dT*dT*dC*dG*dA*dA*dG*dT*dA*dC*dT*dC*dA*dG*dC*dG*dT*dA*dA*dG*dT)",cell viability,cells,less than 40%
siGFP: siRNA which targets GFP; SEQ ID NO 44 (UUAUGUUUCAGGUUCAGGG; unmodified RNA) [reference compound],GFP fluorescence intensity,GFP mRNA,significantly reduced fluorescence intensity
"GFP(1)_141_141: linear miRNA trigger targeting GFP mRNA and binding miR-141; SEQ ID NO 41 (nucleic acid, all 2'-O-methyl, backbone not given here) CCAUCUUUACCUCACAGUGUUACCAUCUUUACCUCACAGUGUUAUUAUGUUUCAGGUUCAGGGGGA",GFP fluorescence intensity,GFP mRNA,reduced GFP fluorescence intensity in a dose-dependent manner
